From patent US20050203082A1, “Combination therapy with inhibitors of inducible nitric oxide synthase and alkylating agents” (priority 2003, published 2005)
Where a name gives a salt, the structure may show the parent alone.

Experiments:
[1] = test system: human cartilage explants; assay: Human cartilage explant assay (IL-1 induced nitrite production); format: cell-based; settings: inhibition of nitrite production, IL-1 stimulated explants
Description: Bone pieces are rinsed twice with Dulbecco's Phosphate Buffered Saline (GibcoBRL) and once with Dulbecco's Modified Eagles Medium (GibcoBRL) and placed into a petri dish with phenol red free Minimum Essential Medium (MEM) (GibcoBRL). […] The culture media was either a custom modification of Minimum Essential Medium(Eagle) with Earle's salts (GibcoBRL) prepared without L-Arginine, without L-Glutamine and without phenol red or a custom modification of serumless Neuman and Tytell (GibcoBRL) medium prepared without L-arginine, without insulin, without ascorbic acid, without L-glutamine and without phenol red. Both are supplemented before use with 100 μM L-Arginine (Sigma), 2 mM L-glutamine, 1× HL-1 supplement (BioWhittaker), […] ascorbic acid (Sigma) and 150 pg/ml recombinant human IL-1[…] (RD Systems) to induce nitric oxide synthase. Compounds are then added in 10 μL aliquots and the explants incubated at 37° C. with 5% CO2 for 18-24 hr. The day old supernatant is then discarded and replaced with fresh culture media containing recombinant human IL-1β and compound and incubated for another 20-24 hr. […] All samples are done in quadruplicate. Unstimulated controls are cultured in media in the absence of recombinant human IL-1{tilde over (□)} IC50 values (Table I) are determined from plotting the percent inhibition of nitrite production at 6 different concentrations of inhibitor.

[2] = test system: inducible nitric oxide synthase activity in vivo; assay: In vivo assay: LPS-induced plasma nitrite/nitrate in endotoxin-treated rats; design: species or system rat; settings: oral administration, plasma nitrite/nitrate 5 hr post-treatment; for ED50: Rattus norvegicus
Description: Plasma nitrite/nitrate levels can be determined 5 hr post-treatment.

[3] = test system: recurrent GBM; settings: recurrent GBM after resection and radiotherapy; cited from earlier work
[4] = test system: C6 cells overexpressing iNOS; settings: concentration-dependent; cited from earlier work

## CC(=N)NC/C=C\CC[C@](C)(N)C(=O)O [Example LL, (2S,5Z)-7-acetimidoylamino-2-amino-2-methyl-hept-5-enoic acid]
[1]; Homo sapiens
  IC50: 800 nM
[2]
  ED50: 0.3 mg/kg

## CC(=N)NC/C(F)=C\CC[C@H](N)C(=O)O [Example A, (2S,5E)-2-amino-6-fluoro-7-[(1-iminoethyl)amino]-5-heptenoic acid, dihydrochloride]
[1]; Homo sapiens
  IC50: 100 nM
[2]
  ED50: < 0.1 mg/kg
[2]; dihydrochloride
  ED50 in endotoxin-treated rats: <0.1 mg/kg

## CC(=NO)NC/C(F)=C\CC[C@H](N)C(=O)O [Example G, (2S,5E)-2-amino-6-fluoro-7-[(1-hydroximinoethyl)amino]-5-heptenoic acid]
other
  melting point: 198 to 200 °C
[2]
  ED50: < 0.1 mg/kg

## CC(=N)NCC(F)=CCC[C@H](N)C(=O)O (mixture of isomers) [Example B, (2S,5E/Z)-2-amino-6-fluoro-7-[(1-iminoethyl)amino]-5-heptenoic acid, dihydrochloride]
[1]; Homo sapiens
  IC50: 200 nM

## O=NN(CCCl)C(=O)NCCCl [BCNU, 1,3-bis(β-chloroethyl)-1-nitrosourea]
[3]
  response rate: about 30%

## COC[C@](N)(CSCCNC(C)=N)C(=O)O [Example J, 2-[[[2-[(1-Iminoethyl)amino]ethyl]thiolmethyl]-O-methyl-D-serine, dihydrochloride]
[1]
  IC50: 8200 nM

## N=C1CCCC[C@H](CCCC[C@H](N)C(=O)O)N1 [Example Z, (αS,2S)-α-aminohexahydro-7-imino-1H-azepine-2-hexanoic acid, trihydrate hydrochloride]
[1]; Homo sapiens
  IC50: < 10000 nM

## N=C1CCCC[C@H](CCCC[C@H](N)C(=O)O)N1 [Example X, (αS,2S)-α-aminohexahydro-7-imino-1H-azepine-2-hexanoic acid, trihydrate hydrochloride]
[1]
  IC50: < 10000 nM

## O=NN(CCCl)C(=O)NC1CCCCC1 [CCNU, urea, N-(2-chloroethyl)-N′ cyclohexyl-N-nitroso-(9CI)]
[3]
  response rate: about 30%

## Cl.N=C1CCCC[C@H](CCCC[C@@H](N)C(=O)O)N1.O.O.O [Example V, (αR,2S)-α-aminohexahydro-7-imino-1H-azepine-2-hexanoic acid, trihydrate hydrochloride]
[1]; Homo sapiens
  IC50: < 10000 nM
[2]
  ED50: < 3 mg/kg

## CC(=N)NC/C(F)=C\CC[C@](C)(N)C(=O)O.Cl.Cl [Example HH, (2S,5E)-2-amino-2-methyl-6-fluoro-7-[(1-iminoethyl)amino]-5-heptenoic acid, dihydrochloride]
[1]; Homo sapiens
  IC50: 400 nM
[2]
  ED50: 0.4 mg/kg

## CC(=N)NC/C(F)=C/CC[C@H](N)C(=O)O [Example D, (2S,5Z)-2-amino-6-fluoro-7-[(1-iminoethyl)amino]-5-heptenoic acid, trihydrochloride, dihydrate]
[1]; Homo sapiens
  IC50: 2500 nM
[2]
  ED50: > 10 mg/kg

## CC(=N)NC/C(F)=C\CC[C@H](N)C(=O)Nc1nnn[nH]1 [Example H, (2S,5E)-2-amino-6-fluoro-7-[(1-iminoethyl)amino]-N-(1H-tetrazol-5-yl) 5-heptenamide, dihydrochloride]
[2]
  ED50: < 0.3 mg/kg

## COC(=O)[C@@H](N)CCCNC(=N)N[N+](=O)[O-] [L-NAME]
[4]
  BCNU toxicity: restoration of BCNU toxicity
  nitrite levels: reduced the nitrite levels
